Converted amounts (≈) assume the structure as drawn.
Each compound was assayed against T1, HIV-1 protease (Human immunodeficiency virus type 1 group M subtype B, UniProt P04585) (assay: biochemical). Conditions: read-out: Fluorescence Assay IC3.
T1 construct: Purified HIV-1 protease was obtained as described above; made in house; host or cells: E. coli K12 L507/pHP10D (NRRL B-18560)
Format: biochemical
Description: C. Preparation of Protease Fraction
A culture of E. coli K12 L507/pHP10D was grown to mid-log phase at 32° C. in LB media containing 12.5 μg/ml tetracycline. The cultivation temperature was quickly elevated to 40° C. to induce gene expression, and the cells were allowed to grow for 2.5 hours at this temperature before the culture was quickly chilled on ice. The cells were centrifuged and the cell pellet was resuspended in 20 mL 50 mmol MES buffer (pH 6.0) containing 1 mmol EDTA, 1 mmol DTT, 1 mmol PMSF and 10% glycerol ("Buffer A"). Cells were lysed by sonication using a Fischer Model 300 Dismembrator and a microtip probe. Following centrifugation at 27,000×g, the supernatant was diluted to a total volume of 60 mL with Buffer A and loaded onto a 2.0×19 cm QAE-Sepharose column (1 mL/min, 4° C.), that had been equilibrated in Buffer A. The column was washed isocratically for 180 min and then eluted with a gradient eluent of 0-1.0M sodium chloride in Buffer A over 120 min. Enzymatic activity was measured by HPLC using the synthetic peptide SQNYPIV as described in Margolin et al., Biochem. Biophys. Res. Commun., 167, 554-560 (1990); the production of the p1 peptide (SQNY) was measured.
The active fractions were combined, made 1.2M in ammonium sulfate, and applied to a 2.0×18 cm hexyl agarose column that had been equilibrated in Buffer A containing 1.2M ammonium sulfate. The sample was loaded at a flow rate of 1 mL/min at 4° C., washed with the equilibration buffer for 240 min (1 mL/min) and then eluted using a reverse linear gradient of 1.2-0M ammonium sulfate in Buffer A for 120 min at the same flow rate. The column was then washed isocratically in Buffer A for 120 min.
The active fractions were combined, concentrated to 10 mL using an Amicon stirred cell with a YM-10 membrane and then applied to a MonoS cation exchange column (1.0×10 cm) that had been equilibrated in Buffer A. The sample was loaded at a flow rate of 1 mL/min at 25° C. After washing isocratically for 30 min, the protease was eluted using a linear gradient of 0-0.45M sodium chloride in Buffer A over 40 min. The column was washed isocratically in Buffer A containing 0.45M sodium chloride for 30 min.
The active fractions were combined and concentrated to 200 μL using an Amicon stirred cell and a YM-10 membrane and then the protease was applied to a Superose 6 size exclusion column equilibrated in Buffer A containing 0.1M sodium chloride.
The purified peptide was labeled with a fluorescent marker at the C-terminal end for use in the Pandex assay. N^α -Biotin-[…]OH SEQ ID NO:3. (1.206 g, 0.936 mmol) was dissolved in 100 mL of 0.1M sodium borate, pH 9.5. Then, a solution of 3 g (7.7 mmol) of fluorescein isothiocyanate in 15 mL dimethyl sulfoxide was added to the reaction mixture in 10 equal portions over two hours. The resulting mixture was allowed to react for one hour after the final addition. The solution was adjusted to pH 3 using 5N hydrochloric acid, resulting in the formation of a precipitate which was removed by centrifugation.
E. Fluorescence HIV-1 Protease Inhibitor Assay
The following buffers and solutions are used in the Fluorescence HIV-1 Protease Inhibitor Assay:
MES-ALB Buffer: 0.05M 4-morpholineethane
Avidin Coated 0.1% solution of Fluoricon
Beads Solution: Avidin Assay Particles
(Avidin conjugated to solid
polystyrene beads, 0.6-0.8
microns in diameter in TBSA
27 IU/mL of purified HIV-1
protease in MES-ALB buffer
(1 IU equals the amount of
enzyme required to hydrolyze
1 μmole of substrate per
To each well of a round bottom, 96-well plate is added 20 μL of the Enzyme Solution followed by 10 μL of the compound to be evaluated in a 20% aqueous dimethylsulfoxide solution. Purified HIV-1 protease was obtained as described above.

SMILES	IC3
CC(C)(C)NC(=O)c1ccccc1C[C@@H](O)[C@H](Cc1ccccc1)NC(=O)[C@@H](CSc1ccccc1)NC(=O)OC(C)(C)C [Example 22A, [2R-(2R *,3S*,6S*)]-N-t-Butyl-2-[2-hydroxy-3-phenylmethyl-4-aza-5-oxo-6-N(t-butoxycarbonyl)amino-7-phenylthio]heptyl benzamide]	2 µg/mL
CC(C)(C)NC(=O)c1ccccc1C[C@@H](O)[C@H](Cc1ccccc1)NC(=O)[C@H](N)CSc1ccccc1 [Example 22B, [2R-(2R*,3S*,6S*)]-N-t-Butyl-2-[2-hydroxy-3-phenylmethyl-4-aza-5-oxo-6-amino-7-phenylthio]heptyl benzamide]	1 µg/mL

Same assay, conditions: read-out: Fluorescence Assay IC8

SMILES	IC8
CC(C)(C)NC(=O)c1ccccc1C[C@@H](O)[C@H](Cc1ccccc1)NC(=O)[C@H](CC(=O)OCc1ccccc1)NC(=O)OC(C)(C)C [Example 31A, [2R-(2R*,3S*,6S*)]-N-t-Butyl-2-[2-hydroxy-3-phenylmethyl-4-aza-5-oxo-6-N(t-butoxycarbonyl)amino-7-benzyloxycarbonyl]heptyl benzamide]	1 µg/mL

Same assay, conditions: read-out: Fluorescence Assay IC12

IC12	SMILES
1 µg/mL	CC(=O)N[C@@H](CSCc1ccccc1)C(=O)N[C@@H](Cc1ccccc1)[C@H](O)Cc1ccccc1C(=O)NC(C)(C)C [Example 32, [2R-(2R*,3S*,6R*)]-N-t-Butyl-2-[2-hydroxy-3-phenylmethyl-4-aza-5-oxo-6-N-(ethanoyl)amino-7-benzylthio]heptyl benzamide]

Same assay, conditions: read-out: Fluorescence Assay IC30

IC30	SMILES
1 µg/mL (≈ 1.6 µM)	CC(C)(C)NC(=O)c1ccccc1C[C@@H](O)[C@H](Cc1ccccc1)NC(=O)[C@H](CC(=O)OCc1ccccc1)NS(C)(=O)=O [Example 31C, [2R-(2R*,3S*,6S*)]-N-t-Butyl-2-[2-hydroxy-3-phenylmethyl-4-aza-5-oxo-6-N(methylsulfonyl)amino-7-benzyloxycarbonyl]heptyl benzamide]

Same assay, conditions: read-out: Fluorescence Assay IC45

IC45	SMILES
1 µg/mL (≈ 1.95 µM)	CSCC[C@H](NC(C)=O)C(=O)N[C@@H](Cc1ccccc1)[C@H](O)Cc1ccccc1C(=O)NC(C)(C)C [Example 21, [2R-(2R*,3S*,6S*)]-N-t-Butyl-2-[2-hydroxy-3-phenylmethyl-4-aza-5-oxo-6-N(ethanoyl)amino-8-methylthio]octyl benzamide]
1 µg/mL (≈ 1.89 µM)	CC(=O)N[C@H](Cc1ccccc1)C(=O)N[C@@H](Cc1ccccc1)[C@H](O)Cc1ccccc1C(=O)NC(C)(C)C [Example 26, [2R-(2R*,3S*,6R*)]-N-t-Butyl-2-[2-hydroxy-3-phenylmethyl-4-aza-5-oxo-6-N-(ethanoyl)amino-7-phenyl]heptyl benzamide]

Same assay, conditions: read-out: Fluorescence Assay IC50 (converted)

IC50	SMILES
18.9 nM	CC(C)(C)NC(=O)c1ccccc1C[C@@H](O)[C@H](Cc1ccccc1)NC(=O)[C@@H](CSc1ccccc1)NS(C)(=O)=O [Example 22C, [2R-(2R*,3S*,6S*)]-N-t-Butyl-2-[2-hydroxy-3-phenylmethyl-4-aza-5-oxo-6-N(methylsulfonyl)amino-7-phenylthio]heptyl benzamide]
2.54 nM	CC(C)(C)NC(=O)c1ccccc1C[C@@H](O)[C@H](Cc1ccccc1)NC(=O)[C@@H](CS(=O)(=O)c1ccccc1)NS(C)(=O)=O [Example 22D, [2R-(2R*,3S*,6S*)]-N-t-Butyl-2-[2-hydroxy-3-phenylmethyl-4-aza-5-oxo-6-N(methylsulfonyl)amino-7-phenylsulfonyl]heptyl benzamide]
0.978 nM	CC(C)(C)NC(=O)c1ccccc1C[C@@H](O)[C@H](Cc1ccccc1)NC(=O)[C@@H](C[S+]([O-])c1ccccc1)NS(C)(=O)=O (stereo partly drawn) [Example 22E, [2R-(2R*,3S*,6S*)]-N-t-Butyl-2-[2-hydroxy-3-phenylmethyl-4-aza-5-oxo-6-N(methylsulfonyl)amino-7-phenylsulfinyl]heptyl benzamide]
25.9 nM	CC(C)(C)NC(=O)c1ccccc1C[C@@H](O)[C@H](Cc1ccccc1)NC(=O)[C@@H](CSc1ccc2ccccc2n1)NS(C)(=O)=O [Example 23C, [2R-(2R*,3S*,6S*)]-N-t-Butyl-2-[2-hydroxy-3-phenylmethyl-4-aza-5-oxo-6-N(methylsulfonyl)amino-7-quinolin-2-ylthio]heptyl benzamide]
1.18 nM	CC(C)(C)NC(=O)c1ccccc1C[C@@H](O)[C@H](Cc1ccccc1)NC(=O)[C@@H](CS(=O)(=O)c1ccc2ccccc2n1)NS(C)(=O)=O [Example 23D, [2R-(2R*,3S*,6S*)]-N-t-Butyl-2-[2-hydroxy-3-phenylmethyl-4-aza-5-oxo-6-N(methylsulfonyl)amino-7-quinolin-2-ylsulfonyl]heptyl benzamide]
4.06 nM	CC(C)(C)NC(=O)c1ccccc1C[C@@H](O)[C@H](Cc1ccccc1)NC(=O)[C@@H](C[S+]([O-])c1ccc2ccccc2n1)NS(C)(=O)=O (stereo partly drawn) [Example 23E, [2R-(2R*,3S*,6S*)]-N-t-Butyl-2-[2-hydroxy-3-phenylmethyl-4-aza-5-oxo-6-N(methylsulfonyl)amino-7-quinolin-2-ylsulfinyl]heptyl benzamide]
3.75 nM	CC(=O)N[C@H](CSc1ccc2ccccc2n1)C(=O)N[C@@H](Cc1ccccc1)[C@H](O)Cc1ccccc1C(=O)NC(C)(C)C [Example 24A, [2R-(2R*,3S*,6S*)]-N-t-Butyl-2-[2-hydroxy-3-phenylmethyl-4-aza-5-oxo-6-N(ethanoyl)amino-7-quinolin-2-ylthio]heptyl benzamide]
0.207 nM	CC(=O)N[C@H](C[S+]([O-])c1ccc2ccccc2n1)C(=O)N[C@@H](Cc1ccccc1)[C@H](O)Cc1ccccc1C(=O)NC(C)(C)C (stereo partly drawn) [Example 24B, [2R-(2R*,3S*,6S*)]-N-t-Butyl-2-[2-hydroxy-3-phenylmethyl-4-aza-5-oxo-6-N(ethanoyl)amino-7-quinolin-2-ylsulfinyl]heptyl benzamide]
0.248 nM	CC(=O)N[C@H](CS(=O)(=O)c1ccc2ccccc2n1)C(=O)N[C@@H](Cc1ccccc1)[C@H](O)Cc1ccccc1C(=O)NC(C)(C)C [Example 24C, [2R-(2R*,3S*,6S*)]-N-t-Butyl-2-[2-hydroxy-3-phenylmethyl-4-aza-5-oxo-6-N(ethanoyl)amino-7-quinolin-2-ylsulfonyl]heptyl benzamide]
> 1760 nM	CC(=O)N[C@H](Cc1c[nH]c2ccccc12)C(=O)N[C@@H](Cc1ccccc1)[C@H](O)Cc1ccccc1C(=O)NC(C)(C)C [Example 25, [2R-(2R*,3S*,6R*)]-N-t-Butyl-2-[2-hydroxy-3-phenylmethyl-4-aza-5-oxo-6-N-(ethanoyl)amino-7-indol-3-yl]heptyl benzamide]
371 nM	CC(C)(C)NC(=O)c1ccccc1C[C@@H](O)[C@H](Cc1ccccc1)NC(=O)[C@H](CC(N)=O)NS(=O)(=O)c1ccccn1 [Example 29C, [2R-(2R*,3S*,6S*)]-N-t-Butyl-2-[2-hydroxy-3-phenylmethyl-4-aza-5-oxo-6-N(pyrid-2-ylsulfonyl)amino-7-carbamoyl]heptyl benzamide]
18.6 nM	CC(C)(C)NC(=O)c1ccccc1C[C@@H](O)[C@H](Cc1ccccc1)NC(=O)[C@H](CC(N)=O)NS(=O)(=O)c1cccc2cccnc12 [Example 30, [2R-(2R*,3S*,6S*)]-N-t-Butyl-2-[2-hydroxy-3-phenylmethyl-4-aza-5-oxo-6-N(quinolin-8-ylsulfonyl)amino-7-carbamoyl]heptyl benzamide]
68.2 nM	CC(C)(C)NC(=O)c1ccccc1C[C@@H](O)[C@H](Cc1ccccc1)NC(=O)[C@H](CC(N)=O)NS(=O)(=O)c1cccc2ccccc12 [Example 33, [2R-(2R*,3S*,6S*)]-N-t-Butyl-2-[2-hydroxy-3-phenylmethyl-4-aza-5-oxo-6-N (naphth-1-ylsulfonyl)amino-7-carbamoyl]heptyl benzamide]

— patent publication US5554653A, “Inhibitors of HIV protease useful for the treatment of AIDS” (Eli Lilly and Company, priority 1992, dated 1996)
